The values below come from US20140135270A1, “MACROCYCLIC COMPOUNDS FOR INHIBITION OF INHIBITORS OF APOPTOSIS” (Ensemble Therapeutics Corp., priority 2012, published 2014).

One assay addresses T1, His-BIR3 (241-356, XIAP) (Homo sapiens, UniProt P98170).
T1 construct: additions of His-BIR3 (241-356, XIAP), fluorescein labeled SMAC peptide
As to the kind of experiment: XIAP-BIR3/SMAC Homogeneous Time Resolved Fluorescence (HTRF) Assay. It is filed as binding. The settings on record: fluorescein labeled SMAC peptide. Background: Time-resolved FRET reads energy transfer from a long-lived donor to a nearby acceptor.

The target of assay [1] is T2, His-BIR2-3 (125-356, C202A/C213G, XIAP) (Homo sapiens, UniProt P98170, C202A/C213G).
T2 construct: additions of His-BIR2-3 (125-356, C202A/C213G, XIAP), fluorescein labeled dimeric SMAC peptide
T2 sequence (P98170 125-356 C202A/C213G): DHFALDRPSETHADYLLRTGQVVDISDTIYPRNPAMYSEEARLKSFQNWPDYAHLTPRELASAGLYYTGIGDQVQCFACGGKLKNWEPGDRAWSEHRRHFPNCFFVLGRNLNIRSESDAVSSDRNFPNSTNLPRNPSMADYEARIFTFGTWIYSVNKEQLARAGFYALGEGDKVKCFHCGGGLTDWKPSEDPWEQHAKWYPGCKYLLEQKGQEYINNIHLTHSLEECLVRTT
Kind of assay: XIAP-BIR2-3 Dimeric SMAC Peptide Homogeneous Time Resolved Fluorescence (HTRF) Assay. It is filed as binding. The settings on record: fluorescein labeled dimeric SMAC peptide.

T1 sequence (P98170 241-356): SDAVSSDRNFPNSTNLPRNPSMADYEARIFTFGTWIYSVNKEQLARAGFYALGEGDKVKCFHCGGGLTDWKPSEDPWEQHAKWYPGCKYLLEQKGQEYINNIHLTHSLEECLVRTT

Turning to `CN[C@@H](C)C(=O)N[C@H](C(=O)N1C[C@@H]2C[C@H]1C(=O)N[C@@H](Cc1ccc3ccccc3c1)C(=O)N[C@H](C(=O)O)Cc1ccc(cc1)OCCCC[C@H]1C[C@@H](C(=O)N[C@@H](Cc3ccc4ccccc4c3)C(=O)N[C@H](C(=O)NS(C)(=O)=O)Cc3ccc(cc3)OCc3cn2nn3)N(C(=O)[C@@H](NC(=O)[C@H](C)NC)C(C)(C)C)C1)C(C)(C)C` [Example 2], the IC50 – broadly, the concentration that inhibits the measured activity by half – was 2.3 nM against His-BIR3 (241-356, XIAP) and 0.8 nM in assay [1]. In the case of `CNC(C)C(=O)NC(C(=O)N1CC2CC1C(=O)NC(Cc1ccc3ccccc3c1)C(=O)NC(C(=O)O)Cc1ccc(cc1)OCc1cn(nn1)C1CC(C(=O)NC(Cc3ccc4ccccc4c3)C(=O)NC(C(=O)O)Cc3ccc(cc3)OCC=CCO2)N(C(=O)C(NC(=O)C(C)NC)C(C)(C)C)C1)C(C)(C)C` (stereo not shown) [Example 4], the IC50 at His-BIR3 (241-356, XIAP) turned out to be 4.1 nM; in assay [1], 0.7 nM. In the case of `CNC(C)C(=O)NC(C(=O)N1CC2CC1C(=O)NC(Cc1ccc3ccccc3c1)C(=O)NC(C(=O)O)Cc1ccc(cc1)OCCCCC1CC(C(=O)NC(Cc3ccc4ccccc4c3)C(=O)NC(C(=O)NS(=O)(=O)C(C)C)Cc3ccc(cc3)OCc3cn2nn3)N(C(=O)C(NC(=O)C(C)NC)C(C)(C)C)C1)C(C)(C)C` (stereo not shown) [Example 10], the IC50 came to 6.6 nM at His-BIR3 (241-356, XIAP) and 3.1 nM in assay [1]. On the same counts, the results for `CN[C@@H](C)C(=O)N[C@H](C(=O)N1CC[C@@H]2OC/C=C/COc3ccc(cc3)C[C@@H](C(=O)O)NC(=O)[C@H](Cc3ccc4ccccc4c3)NC(=O)[C@@H]3[C@@H](CCN3C(=O)[C@@H](NC(=O)[C@H](C)NC)C(C)(C)C)OCc3cn(nn3)CCC[C@@H](C(=O)O)NC(=O)[C@H](Cc3ccc4ccccc4c3)NC(=O)[C@H]21)C(C)(C)C` [Example 11] are 0.8 nM and 2.3 nM. The like results for `CN[C@@H](C)C(=O)N[C@H](C(=O)N1CC[C@H]2OCc3cn(nn3)-c3ccc(cc3)C[C@@H](C(=O)O)NC(=O)[C@H](Cc3ccc4ccccc4c3)NC(=O)[C@@H]3C[C@@H](CN3C(=O)[C@@H](NC(=O)[C@H](C)NC)C(C)(C)C)OC/C=C/COc3ccc(cc3)C[C@@H](C(=O)O)NC(=O)[C@H](Cc3ccc4ccccc4c3)NC(=O)[C@H]21)C(C)(C)C` [Example 12] were, in that order, 1.2 nM and 1.2 nM. Take `CN[C@@H](C)C(=O)N[C@H](C(=O)N1CCC2[C@H]1C(=O)N[C@@H](Cc1ccc3ccccc3c1)C(=O)N[C@H](C(=O)O)Cc1ccc(cc1)OC/C=C/CO[C@H]1C[C@@H](C(=O)N[C@@H](Cc3ccc4ccccc4c3)C(=O)N[C@H](C(=O)O)Cc3ccc(cc3)OCc3cn2nn3)N(C(=O)[C@@H](NC(=O)[C@H](C)NC)C(C)(C)C)C1)C(C)(C)C` (stereo partly shown) [Example 13]: the IC50 on His-BIR3 (241-356, XIAP) worked out at 5.4 nM; in assay [1] it was 12.4 nM. Regarding `CN[C@@H](C)C(=O)N[C@H](C(=O)N1CC[C@H]2OC/C=C/COc3ccc(cc3)C[C@@H](C(=O)O)NC(=O)[C@H](Cc3ccc4ccccc4c3)NC(=O)[C@@H]3[C@@H](CCN3C(=O)[C@@H](NC(=O)[C@H](C)NC)C(C)(C)C)OCc3cn(nn3)[C@H](C(=O)O)CCNC(=O)[C@H](Cc3ccc4ccccc4c3)NC(=O)[C@H]21)C(C)(C)C` [Example 14], the IC50 worked out at 17 nM on His-BIR3 (241-356, XIAP) and 3.7 nM in assay [1]. For `CN[C@@H](C)C(=O)N[C@H](C(=O)N1CC[C@H]2OC/C=C/CC[C@@H](C(=O)O)NC(=O)[C@H](Cc3ccc4ccccc4c3)NC(=O)[C@@H]3[C@@H](CCN3C(=O)[C@@H](NC(=O)[C@H](C)NC)C(C)(C)C)OCc3cn(nn3)[C@H](C(=O)O)CCNC(=O)[C@H](Cc3ccc4ccccc4c3)NC(=O)[C@H]21)C(C)(C)C` [Example 15], the IC50 on His-BIR3 (241-356, XIAP) was 38.9 nM; in assay [1], 4.1 nM. In the case of `CN[C@@H](C)C(=O)N[C@H](C(=O)N1CC[C@H]2OCc3cn(nn3)CC[C@@H](C(=O)OC)NC(=O)[C@H](Cc3ccc4ccccc4c3)NC(=O)[C@@H]3[C@@H](CCN3C(=O)[C@@H](NC(=O)[C@H](C)NC)C(C)(C)C)OC/C=C/CC[C@@H](C(=O)O)NC(=O)[C@H](Cc3ccc4ccccc4c3)NC(=O)[C@H]21)C(C)(C)C` [Example 16], the IC50 worked out at 6.2 nM on His-BIR3 (241-356, XIAP) and 3.5 nM in assay [1].

For `CN[C@@H](C)C(=O)N[C@H](C(=O)N1CC[C@H]2OCc3cn(nn3)CC[C@@H](C(=O)OC)NC(=O)[C@H](Cc3ccc4ccccc4c3)NC(=O)[C@@H]3[C@@H](CCN3C(=O)[C@@H](NC(=O)[C@H](C)NC)C(C)(C)C)OC/C=C/COc3ccc(cc3)C[C@@H](C(=O)O)NC(=O)[C@H](Cc3ccc4ccccc4c3)NC(=O)[C@H]21)C(C)(C)C` [Example 17], the concentration for half-maximal inhibition (IC50) against His-BIR3 (241-356, XIAP) is 1.8 nM; in assay [1], 1.8 nM. Consider `CN[C@@H](C)C(=O)N[C@H](C(=O)N1CC[C@@H]2OC/C=C/COc3ccc(cc3)C[C@@H](C(=O)O)NC(=O)[C@H](Cc3ccc4ccccc4c3)NC(=O)[C@@H]3[C@H](CCN3C(=O)[C@@H](NC(=O)[C@H](C)NC)C(C)(C)C)OCc3cn(nn3)[C@H](C(=O)NS(C)(=O)=O)CCCNC(=O)[C@H](Cc3ccc4ccccc4c3)NC(=O)[C@H]21)C(C)(C)C` [Example 18], for which the IC50 stood at 5.8 nM against His-BIR3 (241-356, XIAP) and 1.8 nM in assay [1]. Turning to `CN[C@@H](C)C(=O)N[C@H](C(=O)N1CC[C@@H]2OC/C=C/CC[C@@H](C(=O)O)NC(=O)[C@H](Cc3ccc4ccccc4c3)NC(=O)[C@@H]3[C@H](CCN3C(=O)[C@@H](NC(=O)[C@H](C)NC)C(C)(C)C)OCc3cn(nn3)[C@H](C(=O)NS(C)(=O)=O)CCCNC(=O)[C@H](Cc3ccc4ccccc4c3)NC(=O)[C@H]21)C(C)(C)C` [Example 19], the IC50 against His-BIR3 (241-356, XIAP) stood at 35.3 nM; in assay [1] it was 16.8 nM. The molecule `CC[C@H](NC(=O)[C@H](C)NC)C(=O)N1C[C@@H]2C[C@H]1C(=O)N[C@@H](c1ccccc1)C(=O)N[C@H](C(=O)O)Cc1ccc(cc1)C(=O)N[C@H]1C[C@@H](C(=O)N[C@@H](Cc3ccc4ccccc4c3)C(=O)N[C@H](C(=O)O)Cc3ccc(cc3)OC/C=C/CO2)N(C(=O)[C@@H](NC(=O)[C@H](C)NC)C(C)(C)C)C1` [Example 52] returned a 50% inhibitory concentration (IC50) against His-BIR3 (241-356, XIAP) of 77.8 nM. This lies in the double-digit nanomolar range.

As for `CC[C@H](NC(=O)[C@H](C)NC)C(=O)N1C[C@@H]2C[C@H]1C(=O)N[C@@H](c1ccccc1)C(=O)N[C@H](C(=O)O)Cc1ccc(cc1)C(=O)N[C@H]1C[C@@H](C(=O)N[C@@H](Cc3ccc4ccccc4c3)C(=O)N[C@H](C(=O)O)Cc3ccc(cc3)OC/C=C/CO2)N(C(=O)[C@@H](NC(=O)[C@H](C)NC)C(C)(C)C)C1` [Example 54], the IC50 against His-BIR3 (241-356, XIAP) was determined as 60.3 nM. The IC50 values of the last two molecules are within 1.5-fold of each other.

In the case of `CN[C@@H](C)C(=O)N[C@H](C(=O)N1C[C@@H]2C[C@H]1C(=O)N[C@@H](Cc1ccc3ccccc3c1)C(=O)N[C@H](C(=O)O)Cc1ccc(cc1)C(=O)N[C@H]1C[C@@H](C(=O)N[C@@H](Cc3ccc4ccccc4c3)C(=O)N[C@H](C(=O)O)Cc3ccc(cc3)OC/C=C/CO2)N(C(=O)[C@@H](NC(=O)[C@H](C)NC)C(C)(C)C)C1)C1CCNCC1` [Example 67], on His-BIR3 (241-356, XIAP), half-maximal inhibition (IC50) required 20 nM. Consider `CN[C@@H](C)C(=O)N[C@H](C(=O)N1C[C@@H]2C[C@H]1C(=O)N[C@@H](Cc1ccc3ccccc3c1)C(=O)N[C@H](C(=O)O)Cc1ccc(cc1)C(=O)N[C@H]1C[C@@H](C(=O)N[C@@H](Cc3ccc4ccccc4c3)C(=O)N[C@H](C(=O)O)Cc3ccc(cc3)OC/C=C/CO2)N(C(=O)[C@@H](NC(=O)[C@H](C)NC)C(C)(C)C)C1)C1CCNCC1` [Example 74], for which the midpoint of inhibition on His-BIR3 (241-356, XIAP), the IC50, lay at 7.1 nM. This IC50 is about 2.8-fold lower than that of the molecule before.
